From patent publication US7470669B2, “Isolated polypeptide comprising a leptin fragment” (Serono Genetics Institute, S.A., priority 1999, dated 2008)

Columns and labels:
LSR mRNA [1] = assay: Northern blot of LSR mRNA in leptin-treated rat hepatocytes; assay type: cell-based; settings: rat hepatocytes after 30 min leptin treatment
Experimental: Northern blots were performed as described previously using as a probe clone 18251 described above (Yen F. T., Masson M., Clossais-Besnard N., Andre P., Grosset J. M., Bougueleret L., Dumas J. B., Guerassimenko, O., and Bihain B. E. (1999). J Biol Chem 274, 13390-13398).

LDL-receptor = LDL-receptor (Homo sapiens, UniProt P01130); assay: Degradation of LDL by the LDL-receptor; assay type: cell-based; settings: leptin up to 2 μg/mL
LSR [2] = assay: Ligand blot of 125I-leptin on LSR complexes immunoprecipitated from PLC cells; assay type: binding, human; settings: PLC cell lysates; complexes of 200 and 230 kDa
Experimental: FIGS. 4A, 4B, 4C, and 4D show LSR binding and degradation of ^125I-leptin in human hepatocytes, and the effect of 81B anti-LSR antibody. For FIG. 4A, PLC cells were lysed (3-T175 cm^2 flasks per condition) and immunoprecipitated with irrelevant or 81B anti-serum. The immunoprecipitates were washed, were separated on 10% SDS-polyacrylamide gels under nondenaturing conditions, and were transferred to nitrocellulose. Ligand blots using ^125I-leptin were then performed as described in FIG. 2. For FIG. 4B, confluent monolayers of PLC cells were incubated at 37° C. for 30 min with 100 nM insulin, were washed, and then were incubated for 30 min at room temperature in the presence of anti-LSR peptide 81B antibody (▪), or irrelevant (□) IgG. After this, the cells were incubated at 37° C. for 2 h with increasing concentrations of ^125I-leptin in Buffer A. The monolayers were washed, and the amount of ^125I-leptin degraded was determined as described herein. Results are shown as the mean of duplicate (irrelevant IgG) or triplicate (anti-LSR peptide IgG) determinations. FIG. 4C is a schematic diagram of the motifs found from the predicted protein sequence of LSR α cDNA. […] After washing and incubation with goat-anti-rabbit FITC-conjugated antibody, the cells were fixed and analyzed by flow cytometry using a FACSCalibur (Becton Dickinson). […]

LSR mRNA [3] = assay: Northern analysis of LSR mRNA in PLC cells preincubated 24 h with leptin; assay type: cell-based, human; settings: preincubated 24 h with 200-400 ng/mL leptin
Experimental: FIGS. 35A and 35B show graphs of LSR activity and mRNA expression measured in PLC cells preincubated 24 h with leptin. In FIG. 35A, PLC monolayers were incubated 24 h at 37° C. with (o) or without (n) 200 ng/mL human recombinant leptin. After washing with PBS, cells were incubated 30 min at 37° C. with increasing concentrations of human leptin, followed by a 2 h incubation at 37° C. with 0.8 mM oleate and 20 μg/mL ^125I-LDL. Cells were washed, and the amount of oleate-induced ^125I-LDL binding was measured as described previously. Results are shown as the mean of triplicate determinations. In FIG. 35B, PLC monolayers were incubated 24 h at 37° C. with 0, 200, or 400 ng/mL human recombinant leptin. After washing with PBS, the cells were harvested. Total RNA was prepared from the cell pellets, and Northerns were performed to detect LSR mRNA, using GAPDH probe as loading control as described previously. Northern blots were scanned on the Phosphorimager (Molecular Dynamics, Sunnyvale, Calif.). Densitometric analysis of the images was performed using the software ImageQuant. Results are shown as the amount of LSR signal relative to that of GAPDH (mean±SD, n=3/condition). […]

LSR [4] = assay: 125I-leptin degradation in PLC cells; assay type: cell-based, human; settings: PLC cells, 2 h incubation
LRP = LRP (Homo sapiens, UniProt Q07954); assay: Degradation of activated α2-macroglobulin (LRP ligand); assay type: cell-based; settings: leptin up to 2 μg/mL
Sequence of LRP (Q07954 20-4544): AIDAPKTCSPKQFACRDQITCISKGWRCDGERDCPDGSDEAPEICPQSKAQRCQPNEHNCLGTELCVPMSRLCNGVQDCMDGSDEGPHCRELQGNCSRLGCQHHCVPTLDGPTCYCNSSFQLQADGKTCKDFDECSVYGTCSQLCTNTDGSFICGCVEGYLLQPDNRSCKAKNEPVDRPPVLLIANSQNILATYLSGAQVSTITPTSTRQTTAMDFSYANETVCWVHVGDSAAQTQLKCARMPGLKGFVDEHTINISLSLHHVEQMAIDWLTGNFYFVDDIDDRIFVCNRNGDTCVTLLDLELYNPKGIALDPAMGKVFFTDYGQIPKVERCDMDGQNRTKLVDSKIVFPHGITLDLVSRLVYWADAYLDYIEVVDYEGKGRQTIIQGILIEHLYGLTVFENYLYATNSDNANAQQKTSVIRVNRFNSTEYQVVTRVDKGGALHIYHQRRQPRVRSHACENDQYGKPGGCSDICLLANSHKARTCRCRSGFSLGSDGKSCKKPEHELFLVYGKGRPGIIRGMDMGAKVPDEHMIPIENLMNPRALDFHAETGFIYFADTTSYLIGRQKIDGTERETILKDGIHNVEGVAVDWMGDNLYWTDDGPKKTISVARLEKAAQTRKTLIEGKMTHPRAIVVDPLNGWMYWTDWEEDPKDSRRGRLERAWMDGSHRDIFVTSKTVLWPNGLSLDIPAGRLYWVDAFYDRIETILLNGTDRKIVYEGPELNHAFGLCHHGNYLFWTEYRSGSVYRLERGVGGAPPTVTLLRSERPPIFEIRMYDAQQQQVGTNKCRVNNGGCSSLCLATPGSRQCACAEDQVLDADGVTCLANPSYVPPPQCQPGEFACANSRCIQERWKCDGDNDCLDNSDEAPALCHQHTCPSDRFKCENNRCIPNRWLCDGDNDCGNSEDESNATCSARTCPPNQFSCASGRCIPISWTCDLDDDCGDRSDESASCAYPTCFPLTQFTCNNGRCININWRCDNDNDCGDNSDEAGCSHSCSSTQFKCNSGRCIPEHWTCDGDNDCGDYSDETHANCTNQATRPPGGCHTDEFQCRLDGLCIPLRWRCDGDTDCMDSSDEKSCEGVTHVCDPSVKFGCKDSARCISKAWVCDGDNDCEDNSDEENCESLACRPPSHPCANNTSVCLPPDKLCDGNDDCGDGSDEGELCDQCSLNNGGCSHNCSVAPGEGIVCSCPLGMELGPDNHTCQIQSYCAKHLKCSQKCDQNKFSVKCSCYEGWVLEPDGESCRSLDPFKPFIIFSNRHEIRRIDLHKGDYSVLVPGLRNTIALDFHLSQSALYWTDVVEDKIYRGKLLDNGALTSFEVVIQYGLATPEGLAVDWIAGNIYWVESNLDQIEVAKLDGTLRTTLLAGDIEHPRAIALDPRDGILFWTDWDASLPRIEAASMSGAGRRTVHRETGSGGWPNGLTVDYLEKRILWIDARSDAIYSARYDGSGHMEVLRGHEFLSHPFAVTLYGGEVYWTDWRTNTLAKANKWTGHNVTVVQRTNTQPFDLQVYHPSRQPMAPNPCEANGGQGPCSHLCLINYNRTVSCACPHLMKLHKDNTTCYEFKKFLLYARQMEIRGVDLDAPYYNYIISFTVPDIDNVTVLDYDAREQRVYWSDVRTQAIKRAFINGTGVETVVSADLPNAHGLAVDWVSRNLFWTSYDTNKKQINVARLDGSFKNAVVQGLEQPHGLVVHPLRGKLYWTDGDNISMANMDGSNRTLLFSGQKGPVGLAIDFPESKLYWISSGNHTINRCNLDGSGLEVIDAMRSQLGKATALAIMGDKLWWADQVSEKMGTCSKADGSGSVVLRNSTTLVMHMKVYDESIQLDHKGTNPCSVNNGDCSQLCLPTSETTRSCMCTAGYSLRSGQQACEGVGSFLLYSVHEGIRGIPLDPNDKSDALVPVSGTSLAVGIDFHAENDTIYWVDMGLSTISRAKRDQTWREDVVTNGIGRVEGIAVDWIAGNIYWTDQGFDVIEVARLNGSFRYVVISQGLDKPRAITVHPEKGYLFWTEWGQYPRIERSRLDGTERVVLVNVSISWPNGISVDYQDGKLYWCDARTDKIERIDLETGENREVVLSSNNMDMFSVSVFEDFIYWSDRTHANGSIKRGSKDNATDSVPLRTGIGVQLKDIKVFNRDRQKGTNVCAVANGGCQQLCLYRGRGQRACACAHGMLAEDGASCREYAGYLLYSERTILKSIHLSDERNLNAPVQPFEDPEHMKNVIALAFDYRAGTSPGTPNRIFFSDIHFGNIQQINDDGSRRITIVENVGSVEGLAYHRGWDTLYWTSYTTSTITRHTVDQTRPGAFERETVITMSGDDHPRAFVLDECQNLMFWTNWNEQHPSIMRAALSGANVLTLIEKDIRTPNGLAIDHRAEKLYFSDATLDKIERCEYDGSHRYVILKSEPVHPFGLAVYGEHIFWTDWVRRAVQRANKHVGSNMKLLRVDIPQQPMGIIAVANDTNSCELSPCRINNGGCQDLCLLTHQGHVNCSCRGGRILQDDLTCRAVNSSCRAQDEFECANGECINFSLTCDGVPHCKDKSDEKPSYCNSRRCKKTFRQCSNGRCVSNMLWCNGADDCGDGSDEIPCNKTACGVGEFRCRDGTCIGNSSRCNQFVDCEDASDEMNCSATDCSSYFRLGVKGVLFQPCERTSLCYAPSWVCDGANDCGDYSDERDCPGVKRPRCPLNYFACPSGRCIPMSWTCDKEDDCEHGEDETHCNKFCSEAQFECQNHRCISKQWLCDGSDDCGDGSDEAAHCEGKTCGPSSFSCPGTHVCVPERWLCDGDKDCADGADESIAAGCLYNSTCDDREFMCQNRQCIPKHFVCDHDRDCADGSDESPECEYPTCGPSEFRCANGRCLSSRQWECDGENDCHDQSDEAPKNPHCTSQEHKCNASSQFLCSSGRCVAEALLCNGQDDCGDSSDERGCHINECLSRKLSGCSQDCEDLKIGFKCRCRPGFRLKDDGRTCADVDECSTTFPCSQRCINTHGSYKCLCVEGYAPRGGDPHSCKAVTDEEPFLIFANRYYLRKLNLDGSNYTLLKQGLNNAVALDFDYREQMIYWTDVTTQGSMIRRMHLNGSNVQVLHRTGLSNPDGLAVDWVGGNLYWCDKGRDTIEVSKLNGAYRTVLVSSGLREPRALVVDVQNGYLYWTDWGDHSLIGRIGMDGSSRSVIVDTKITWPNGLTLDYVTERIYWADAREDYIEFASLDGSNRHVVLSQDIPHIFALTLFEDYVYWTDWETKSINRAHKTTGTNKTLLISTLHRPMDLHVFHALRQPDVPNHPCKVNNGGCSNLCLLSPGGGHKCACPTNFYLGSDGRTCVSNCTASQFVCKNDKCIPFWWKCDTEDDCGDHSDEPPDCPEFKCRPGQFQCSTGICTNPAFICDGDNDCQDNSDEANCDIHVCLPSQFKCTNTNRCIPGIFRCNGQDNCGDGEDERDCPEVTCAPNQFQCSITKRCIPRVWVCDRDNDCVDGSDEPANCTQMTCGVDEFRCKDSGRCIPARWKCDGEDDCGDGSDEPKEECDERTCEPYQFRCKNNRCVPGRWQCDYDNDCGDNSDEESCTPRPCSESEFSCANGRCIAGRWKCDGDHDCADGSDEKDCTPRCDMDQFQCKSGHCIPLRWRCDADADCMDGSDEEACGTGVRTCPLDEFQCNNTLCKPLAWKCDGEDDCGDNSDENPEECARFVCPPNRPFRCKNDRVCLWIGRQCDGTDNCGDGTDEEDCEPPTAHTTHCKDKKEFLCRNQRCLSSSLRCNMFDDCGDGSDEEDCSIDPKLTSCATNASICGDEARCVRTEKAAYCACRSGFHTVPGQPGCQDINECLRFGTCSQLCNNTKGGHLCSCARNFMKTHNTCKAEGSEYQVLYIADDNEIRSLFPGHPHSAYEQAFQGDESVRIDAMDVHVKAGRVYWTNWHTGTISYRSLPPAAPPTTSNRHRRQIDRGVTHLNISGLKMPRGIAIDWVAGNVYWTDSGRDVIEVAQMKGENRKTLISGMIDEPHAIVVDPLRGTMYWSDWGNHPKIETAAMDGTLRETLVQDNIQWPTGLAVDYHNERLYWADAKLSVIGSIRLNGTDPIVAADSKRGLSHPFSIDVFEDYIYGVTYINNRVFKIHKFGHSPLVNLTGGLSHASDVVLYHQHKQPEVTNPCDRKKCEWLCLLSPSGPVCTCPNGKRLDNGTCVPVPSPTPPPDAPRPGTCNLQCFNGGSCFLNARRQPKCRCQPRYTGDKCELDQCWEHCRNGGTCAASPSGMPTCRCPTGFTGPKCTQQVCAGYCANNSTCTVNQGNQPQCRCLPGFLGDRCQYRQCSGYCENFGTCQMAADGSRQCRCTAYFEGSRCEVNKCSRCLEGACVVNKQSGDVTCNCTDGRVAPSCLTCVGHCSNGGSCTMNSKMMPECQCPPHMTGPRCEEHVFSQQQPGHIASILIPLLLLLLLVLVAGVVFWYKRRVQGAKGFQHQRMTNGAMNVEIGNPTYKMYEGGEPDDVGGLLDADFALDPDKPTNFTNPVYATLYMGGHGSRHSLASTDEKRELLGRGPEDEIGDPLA

ob/ob mice = assay: Food intake of ob/ob mice under daily subcutaneous injections; assay type: in vivo, mouse; settings: daily subcutaneous injections of 25 μg over a 12 day period
Experimental: A synthetic peptide with a sequence identical to that of mouse leptin between residues 117-138 was obtained and found to stimulate the oleate-induced binding of ^125I-LDL in primary cultures of rat hepatocytes (FIG. 11B, insert). Daily subcutaneous injections of 25 μg of this synthetic leptin peptide to ob/ob mice had no effect on the food intake over a 12 day period (7.6±0.4 g/day in ob/ob receiving saline and 6.7±0.3 g/day in ob/ob receiving peptide; n=4, NS). Daily injections of 25 μg of mouse leptin caused a reduction of food intake to 4.7±0.5 g/day (n=3; p<0.003 versus controls).

| Substance | LSR mRNA levels (Northern blots) (LSR mRNA [1]) | degradation of LDL by the LDL-receptor (LDL-receptor) | binding of 125I-leptin to multimeric complexes precipitated by the 81B antibody (LSR [2]) | decrease of hepatocyte LSR mRNA relative to GAPDH (LSR mRNA [3]) | leptin concentration at which 125I-leptin degradation saturated (LSR [4]) [ng/mL] | degradation of activated α2-macroglobulin, the preferred LRP ligand (LRP) | food intake (ob/ob mice) [g/day] |
| --- | --- | --- | --- | --- | --- | --- | --- |
| leptin: plasma protein of 16 kDa produced by adipocytes; recombinant human or mouse leptin, species depends on the experiment | did not increase mRNA levels significantly | no detectable effect | binds directly | 25-35% | ≥ 10 | no detectable effect |  |
| CSLPQTSGLQKPESLDGVLEAS (listed as Mus musculus) [mouse peptide, mouse leptin fragment residues 117-138, 22-mer] |  |  |  |  |  |  | 6.7 ± 0.3 |
